Results published in patent publication US20140179773A1, “METHOD FOR THE TREATMENT OF HEART RELATED DISORDERS IN NAFLD PATIENTS” (INSTITUTO BIOCHIMICO ITALIANO GIOVANNI LORENZINI S.P.A., priority 2012, published 2014).

Experiments:
Type in all cases: in vivo
[1] = tested on: db/db mice fed a methionine-choline deficient (MCD) diet; assay: Liver triglycerides content (colorimetric kit) in db/db mice fed MCD diet; settings: 4 weeks MCD diet, silibinin 20 mg/kg i.p. daily
Description: All procedures fulfilled the Italian Guidelines for the Use and Care of Laboratory Animals. Six-week-old male BKS.Cg-m+/+ Leprdb/J (db/db) obese mice and six-week-old male heterozygous db/m lean control mice were purchased. Animals were maintained in a temperature and light-controlled facility and permitted ad libitum consumption of water; after two week of acclimation, db/db mice were fed a MCD diet for 4 weeks, whereas db/m mice were fed a MCD diet supplemented with methionine and choline, i.e. a standard diet (SD), for the same period. Silibinin was dissolved in saline (vehicle) and daily administered intraperitoneally at a dosage of 20 mg/kg of body weight. […]
Blood glucose was measured by Accuchek (Roche Diagnostics, Milan, Italy). Serum ALT and serum insulin were determined using a multichannel autoanalyzer. Liver triglycerides content was measured using a serum/tissue triglyceride colorimetric kit (Biovision, Mountain View, Calif.). Liver and heart isoprostanes and 8-hydroxyguanosine (8-OHG) were determined by enzyme-linked immunosorbent assay (ELISA) test; reduced glutathione (GSH) was assessed by a GSH assay. Liver and heart nitrite/nitrates were measured colorimetrically using Griess reagent, following manufacturer's instructions. […]

[2] = tested on: db/db mice fed a methionine-choline deficient (MCD) diet; assay: Biometric and serum biochemical parameters in db/db mice fed MCD diet
Description: This study is aimed at assessing the efficacy of silibinin both on liver and heart injury in NAFLD and at identifying the related molecular events. In order to investigate this issue, we used db/db mice fed a methionine-choline deficient (MCD) diet, a model combining the features of the metabolic syndrome with the histological pattern of NASH [23,24]. In fact, db/db mice fed an MCD diet do partially conserve increased visceral adiposity and an insulin resistant phenotype, while developing hepatocellular injury.
(§1) All procedures fulfilled the Italian Guidelines for the Use and Care of Laboratory Animals. Six-week-old male BKS.Cg-m+/+ Leprdb/J (db/db) obese mice and six-week-old male heterozygous db/m lean control mice were purchased. Animals were maintained in a temperature and light-controlled facility and permitted ad libitum consumption of water; after two week of acclimation, db/db mice were fed a MCD diet for 4 weeks, whereas db/m mice were fed a MCD diet supplemented with methionine and choline, i.e. a standard diet (SD), for the same period. Silibinin was dissolved in saline (vehicle) and daily administered intraperitoneally at a dosage of 20 mg/kg of body weight. Mice were distributed in 3 groups: group I included 6 db/m mice fed a control diet and treated with vehicle (db/m+SD); group II comprised 6 db/db mice fed a MCD diet and treated with vehicle (db/db+MCD); group III included 6 db/db mice fed a MCD diet and treated with silibinin (db/db+MCD+silibinin). Treatment was administered for a 4-week period; at the end of it, animals were sacrificed after an overnight fast. Blood, liver and heart samples were obtained and stored at −80° C. for further analysis.
Blood glucose was measured by Accuchek (Roche Diagnostics, Milan, Italy). Serum ALT and serum insulin were determined using a multichannel autoanalyzer. Liver triglycerides content was measured using a serum/tissue triglyceride colorimetric kit (Biovision, Mountain View, Calif.). Liver and heart isoprostanes and 8-hydroxyguanosine (8-OHG) were determined by enzyme-linked immunosorbent assay (ELISA) test; reduced glutathione (GSH) was assessed by a GSH assay. Liver and heart nitrite/nitrates were measured colorimetrically using Griess reagent, following manufacturer's instructions. ELISA kit for TNF-α was used on whole myocardial tissue protein extracts, following manufacturer's instructions.

[3] = tested on: Liver mitochondrial respiratory chain (MRC) complexes I-V; assay: Mitochondrial respiratory chain activity assay in liver of treated mice; settings: activity relative to db/m + SD group = 100, MCD diet, silibinin 20 mg/kg i.p. daily 4 weeks
Description: as §1, with “analysis. Mitochondrial respiratory chain (MRC) activities was determined as previously described. Briefly, liver tissues (50-70 mg) were homogenized with 15 vol of 20 mmol/L KP buffer, pH 7.4, and centrifuged at 800×g for 10 min. Respiratory chain enzymes and citrate synthase activities were measured in a DU-650 spectrophotometer. Incubation temperatures were 30° C. for complexes I, II, III, V, and citrate synthase, and 38° C. for complex IV. Enzyme activities were assessed in supernatants, expressed as nanomoles of substrate used per minute per milligram of protein and referred as a percentage of the specific activity of citrate synthase, to adjust for the hepatic content of mitochondria.” for “analysis.”

[4] = db/db mice, 4 weeks MCD diet, silibinin 20 mg/kg i.p. daily
[5] = db/db mice, 4 weeks MCD diet, silibinin 20 mg/kg i.p. daily, overnight fast

Effect on food intake ([2]; data not shown): did not modify
SMILES: COc1cc(C2Oc3cc([C@H]4Oc5cc(O)cc(O)c5C(=O)[C@@H]4O)ccc3OC2CO)ccc1O (stereo partly shown) [silibinin, Silibinin]
Liver triglycerides [1]: 8.3 ± 2.4*, ** mg/g protein
HOMA-IR [2, 4]: 1.7 ± 0.5*, **
Serum ALT [2, 4]: 180.5 ± 66.5*, ** IU/L
Blood glucose [2, 5]: 103.7 ± 16.8*, ** mg/dL
Serum insulin [2, 5]: 6.5 ± 1.1 mU/mL
12-Weeks weight ([2]; db/db mice, after 4 weeks MCD diet and silibinin 20 mg/kg i.p. daily): 34.8 ± 1.9 g
Decrease of ALT levels ([2]; silibinin-treated vs vehicle db/db fed MCD diet): 3 fold
Liver MRC complex I [3]: 90.2 ± 5.2
Liver MRC complex II [3]: 88.4 ± 4.3
Liver MRC complex III [3]: 94.4 ± 6.8
Liver MRC complex IV [3]: 96.1 ± 5.2
Liver MRC complex V [3]: 94.3 ± 6.2
